Laboratory results as given in patent US9884063B2, “Amido-substituted azole compounds” (Bayer Pharma Aktiengesellschaft, priority 2014, dated 2018).
Where a name gives a salt, the structure may show the parent alone.

What was measured:
TNKS2 = target: T1, TNKS2 (Homo sapiens, UniProt Q9H2K2); assay: Modified TNKS2 Assay 3 (BPS kit #80578, biotin-NAD+, 96 well); assay type: biochemical; settings: human TNKS2, BPS kit #80578, 96 well
T1 sequence (Q9H2K2 1-1166): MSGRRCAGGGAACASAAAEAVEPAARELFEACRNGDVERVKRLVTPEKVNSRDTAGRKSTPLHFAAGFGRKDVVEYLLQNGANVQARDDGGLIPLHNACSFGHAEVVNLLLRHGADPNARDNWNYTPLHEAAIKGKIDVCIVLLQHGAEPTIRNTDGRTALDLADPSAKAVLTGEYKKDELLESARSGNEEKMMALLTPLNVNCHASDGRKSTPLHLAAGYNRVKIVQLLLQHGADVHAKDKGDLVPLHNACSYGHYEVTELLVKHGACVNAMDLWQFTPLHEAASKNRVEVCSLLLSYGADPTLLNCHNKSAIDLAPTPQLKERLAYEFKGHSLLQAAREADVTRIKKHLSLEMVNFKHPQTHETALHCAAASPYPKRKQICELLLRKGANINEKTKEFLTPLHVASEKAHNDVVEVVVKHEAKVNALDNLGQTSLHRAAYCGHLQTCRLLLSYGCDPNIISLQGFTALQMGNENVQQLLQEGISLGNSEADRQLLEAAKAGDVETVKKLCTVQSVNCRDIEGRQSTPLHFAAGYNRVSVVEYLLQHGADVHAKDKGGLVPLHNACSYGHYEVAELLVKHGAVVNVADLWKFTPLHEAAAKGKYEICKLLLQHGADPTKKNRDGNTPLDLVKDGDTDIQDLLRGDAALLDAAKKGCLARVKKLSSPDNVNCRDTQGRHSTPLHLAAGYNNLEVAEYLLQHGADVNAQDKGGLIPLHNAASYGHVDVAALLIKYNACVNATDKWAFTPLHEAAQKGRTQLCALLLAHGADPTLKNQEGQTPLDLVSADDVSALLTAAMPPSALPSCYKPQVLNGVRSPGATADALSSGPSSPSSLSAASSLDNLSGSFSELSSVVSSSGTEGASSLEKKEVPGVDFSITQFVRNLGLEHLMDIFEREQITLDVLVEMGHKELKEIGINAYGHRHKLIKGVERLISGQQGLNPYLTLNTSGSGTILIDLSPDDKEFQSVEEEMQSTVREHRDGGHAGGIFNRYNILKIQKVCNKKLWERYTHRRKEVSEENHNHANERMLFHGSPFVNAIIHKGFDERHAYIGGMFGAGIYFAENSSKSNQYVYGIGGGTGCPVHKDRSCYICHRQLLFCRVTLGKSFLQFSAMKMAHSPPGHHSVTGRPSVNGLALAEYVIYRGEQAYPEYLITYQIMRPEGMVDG
Method in brief: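 Commercial kit assay measuring TNKS2-catalysed incorporation of biotin-labelled NAD+ into a protein substrate, detected by streptavidin-HRP chemiluminescence. Run per manufacturer's protocol; IC50 is the concentration halving the normalised signal.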

[1] = test system: wildtype Wnt signaling cascade; assay: HEK293 TOP Assay (Super TopFlash luciferase reporter, Wnt-3a stimulated); assay type: cell-based; settings: Homo sapiens, HEK293 TOP reporter cell line, Wnt-3a at EC50, 16 hours incubation, compound dilution series 50 μM to 15 nM
Method in brief: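 Compounds (50 μM down to 15 nM, 3.16-fold steps, in CAFTY buffer pH 7.4, 2 mM Ca2+, 0.01% BSA) tested in parallel on TOP and FOP HEK293 reporter lines to define selective wildtype Wnt inhibition. Pathway driven by recombinant human Wnt-3a applied at 2500–5 ng/ml in two-fold dilutions.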

Row | IC50 (TNKS2) | IC50 ([1]; HEK293, 16 h) | Structure (SMILES) | IC50 [1]
1 | 10 nM | 460 nM | CC(C)(N)CCNC(=O)c1[nH]cnc1C(=O)Nc1ccc(NC(=O)c2ccc(F)cc2Cl)cc1 [Example 286, N^5-(3-amino-3-methylbutyl)-N^4-{4-[(2-chloro-4-fluorobenzoyl)amino]phenyl}-1H-imidazole-4,5-dicarboxamide] | –
2 | 20 nM | 750 nM | CNCCNC(=O)c1[nH]cnc1C(=O)Nc1ccc(NC(=O)c2ccc(F)cc2Cl)cc1 [Example 287, N^4-{4-[(2-chloro-4-fluorobenzoyl)amino]phenyl}-N^5-[2-(methylamino)ethyl]-1H-imidazole-4,5-dicarboxamide] | –
3 | 3 nM | 990 nM | CC(C)NCCNC(=O)c1[nH]cnc1C(=O)Nc1ccc(NC(=O)c2ccc(F)cc2Cl)cc1 [Example 288, N^4-{4-[(2-chloro-4-fluorobenzoyl)amino]phenyl}-N^5-[2-(isopropylamino)ethyl]-1H-imidazole-4,5-dicarboxamide] | –
4 | > 500 nM | 900 nM | CNC(=O)c1nc[nH]c1C(=O)Nc1ccc(NC(=O)c2cccc(C)c2Cl)cc1 [Example 346, N^5-{4-[(2-chloro-3-methylbenzoyl)amino]phenyl}-N^4-methyl-1H-imidazole-4,5-dicarboxamide] | –
5 | 40 nM | 750 nM | CNC(=O)c1nc[nH]c1C(=O)Nc1ccc(NC(=O)c2ccc(C#N)cc2F)cc1 [Example 369, N^5-{4-[(4-cyano-2-fluorobenzoyl)amino]phenyl}-N^4-methyl-1H-imidazole-4,5-dicarboxamide] | –
6 | 3 nM | 250 nM | CCN1CCCC1CNC(=O)c1nc[nH]c1C(=O)Nc1ccc(NC(=O)c2ccc(F)cc2Cl)cc1 (stereo not shown) [Example 390, N^5-{4-[(2-chloro-4-fluorobenzoyl)amino]phenyl}-N^4-[(1-ethylpyrrolidin-2-yl)methyl]-1H-imidazole-4,5-dicarboxamide] | –
7 | 7 nM | 160 nM | CN1CCN(CCCNC(=O)c2nc[nH]c2C(=O)Nc2ccc(NC(=O)c3ccc(F)cc3Cl)cc2)CC1 [Example 392, N^5-{4-[(2-chloro-4-fluorobenzoyl)amino]phenyl}-N^4-[3-(4-methylpiperazin-1-yl)propyl]-1H-imidazole-4,5-dicarboxamide] | –
8 | 20 nM | 360 nM | CC1CCN(CCCNC(=O)c2nc[nH]c2C(=O)Nc2ccc(NC(=O)c3ccc(F)cc3Cl)cc2)CC1 [Example 400, N^5-{4-[(2-chloro-4-fluorobenzoyl)amino]phenyl}-N^4-[3-(4-methylpiperidin-1-yl)propyl]-1H-imidazole-4,5-dicarboxamide] | –
9 | 0.7 nM | 90 nM | CCN1CCC[C@H]1CNC(=O)c1nc[nH]c1C(=O)Nc1ccc(NC(=O)c2ccc(F)cc2Cl)cc1 [Example 404, N^5-{4-[(2-chloro-4-fluorobenzoyl)amino]phenyl}-N^4-{[(2S)-1-ethylpyrrolidin-2-yl]methyl}-1H-imidazole-4,5-dicarboxamide] | –
10 | 8 nM | 230 nM | CN1CCC(CNC(=O)c2nc[nH]c2C(=O)Nc2ccc(NC(=O)c3ccc(F)cc3Cl)cc2)C1 (stereo not shown) [Example 407, N^5-{4-[(2-chloro-4-fluorobenzoyl)amino]phenyl}-N^4-[(1-methylpyrrolidin-3-yl)methyl]-1H-imidazole-4,5-dicarboxamide] | –

Row | Structure (SMILES) | IC50 (TNKS2) | IC50 ([1]; HEK293, 16 h) | IC50 [1]
11 | O=C(Nc1ccc(NC(=O)c2nc[nH]c2C(=O)NCC2CCCN2)cc1)c1ccc(F)cc1Cl (stereo not shown) [Example 284, N^4-{4-[(2-chloro-4-fluorobenzoyl)amino]phenyl}-N^5-(pyrrolidin-2-ylmethyl)-1H-imidazole-4,5-dicarboxamide hydrochloride salt] | 10 nM | – | 680 nM
